The source of these data is patent publication EP0350948B1, “Porphyrin derivatives” (TOYOHAKKA KOGYO KABUSHIKI KAISHA, priority 1988, dated 1990).

Data set [1] has as its system nitrosoamine-induced pancreatic cancer. Kind of data set: laser irradiation to the extirpated organ (excited fluorescent spectrum, N2-PLS measurement), tumor to tissue ratio. The format is in vivo, Golden hamsters. As to conditions: i.v. 25 mg/kg bodyweight, organs extirpated at 24 hours after administration. How it is done: Golden hamsters (males, 5 per group, bodyweight approximately 150 g) were implanted subcutaneously tumor cells of the nitrosoamine-induced pancreatic cancer. After 14 to 21 days following implantation, animals were intravenously (i.v.) administered the test substance EG-Ga-DP-diGly (10 mg/ml) which had been diluted with phosphate buffer at 25 mg/kg bodyweight. At 24 hours after administration, the organs including the tumor were extirpated, irradiated with N2-pulsed laser (N2, 337 nm, 2 ns, 400 - 1000 nm), and measured of excited fluorescent spectrum. The wavelengths of 600 - 900 nm were studied using the peak wavelength of NADH at 470 nm as a reference. (N2-PLS measurement). […] (Tumor to tissue ratio).
Excited fluorescent spectra of the organs extirpated at 24 hours after administration were measured, and the peak wavelength at 600 - 900 nm was calculated by setting the peak wavelength at 470 nm as the reference 1. As fluorescence in Mn, Fe and Cu complexes is not sufficiently intense as to enable N2-PLS measurement, the extraction method was applied to these compounds. At 24 hours following administration, the organs were extracted with an organic solvent (such as chloroform-methanol) via acetone powder, and the obtained extract was measured of UV or HPLC to calculate the tumor to tissue ratio.

The test system is the same in data set [2]. The data set is described as follows: in vivo hemorrhagic necrosis effect. Details: species or system hamsters; key to Hemorrhagic necrosis effect: four scales of G4, G3, G2 and G1; four scales of G4, G3, G2 and G1; four scales of G4, G3, G2 and G1; four scales of G4, G3, G2 and G1. As to conditions: for Hemorrhagic necrosis effect: intensity of hemorrhagic necrosis at 24 hours following i.v. administration, and pathological study; for photograph of a cancer mass (Fig. 2) / photograph of a cancer mass (Fig. 1): 24 hours after administration, Cn-Ga-DP-diAsp; for photograph of a cancer mass (Fig. 2): n = even numbers; for photograph of a cancer mass (Fig. 1): n = odd numbers. How it is done:
Cancer bearing hamsters of Experiment 1 were i.v. administered the test substance C6-Ga-DP-diAsp (10) (10 mg/ml) which had been diluted with phosphate buffer at 25 mg/kg bodyweight and 12.5 mg/kg bodyweight respectively. The animals were exsanguinated and autopsied at 24 hours after administration, and observed.
The evaluation was based on the four scales of G4, G3, G2 and G1.

For `C=CC1=C(C)C2=Cc3c(C(C)OCCO)c(C)c4[n]3[Ga][n]3c(c(C)c(CCC(=O)NC(CC(=O)O)C(=O)O)c3=CC3=NC(=C4)C(C)=C3CCC(=O)NC(CC(=O)O)C(=O)O)=CC1=N2` (centres unmarked) [(2) monoEG-Ga-DP-diAsp, 2-[1-(2-hydroxyethyloxy)ethyl]-4-ethenyl-Ga-deuteroporphynyl diaspartic acid], in data set [1], the tumor/tissue cancer/ kidney is reported as 1.32, the tumor/tissue cancer/ liver was found to be 2.30 and the tumor/tissue cancer/ lung was determined as 1.50. In data set [2], the Hemorrhagic necrosis effect result is “G1”.
`COC(C)C1=C(C)C2=Cc3c(C(C)OC)c(C)c4[n]3[Ga][n]3c(c(C)c(CCC(=O)NC(CC(=O)O)C(=O)O)c3=CC3=NC(=C4)C(C)=C3CCC(=O)NC(CC(=O)O)C(=O)O)=CC1=N2` (centres unmarked) [(4) C1-Ga-DP-diAsp, 2,4-bis(1-methoxyethyl)-Ga-deuteroporphynyl diaspartic acid]: in data set [1], the tumor/tissue cancer/ kidney is on record as 2.27, the tumor/tissue cancer/ liver is recorded as 1.19, the tumor/tissue cancer/ lung was determined as 0.78 and the tumor/tissue cancer/ serum is 2.50. Also, the Hemorrhagic necrosis effect result in data set [2] is recorded as “G1”.
With `CCOC(C)C1=C(C)C2=Cc3c(C(C)OCC)c(C)c4[n]3[Ga][n]3c(c(C)c(CCC(=O)NC(CC(=O)O)C(=O)O)c3=CC3=NC(=C4)C(C)=C3CCC(=O)NC(CC(=O)O)C(=O)O)=CC1=N2` (centres unmarked) [(5) C2-Ga-DP-diAsp, 2,4-bis(1-ethoxyethyl)-Ga-deuteroporphynyl diaspartic acid], in data set [1], the tumor/tissue cancer/ kidney turned out to be 1.25, the tumor/tissue cancer/ liver is 0.71, the tumor/tissue cancer/ lung was determined as 1.25 and the tumor/tissue cancer/ serum amounted to 1.16. In data set [2], the “photograph of a cancer mass (Fig. 2)” value is “hemorrhagic necrosis” and the Hemorrhagic necrosis effect result was “G1”.
On to `CCCOC(C)C1=C(C)C2=Cc3c(C(C)OCCC)c(C)c4[n]3[Ga][n]3c(c(C)c(CCC(=O)NC(CC(=O)O)C(=O)O)c3=CC3=NC(=C4)C(C)=C3CCC(=O)NC(CC(=O)O)C(=O)O)=CC1=N2` (centres unmarked) [(6) C3-Ga-DP-diAsp, 2,4-bis(1-propoxyethyl)-Ga-deuteroporphynyl diaspartic acid], for which, in data set [1], the tumor/tissue cancer/ kidney worked out at 14.44, the tumor/tissue cancer/ liver was determined as 2.95, the tumor/tissue cancer/ lung was determined as 3.42 and the tumor/tissue cancer/ serum was determined as 5.91. For the same molecule, in data set [2], the “photograph of a cancer mass (Fig. 1)” value was “hemorrhagic necrosis” and the Hemorrhagic necrosis effect result was “G2”.
On to `CC1=C(CCC(=O)NC(CC(=O)O)C(=O)O)C2=NC1=Cc1c(C)c(C(C)OC(C)C)c3[n]1[Ga][n]1c(c(C)c(CCC(=O)NC(CC(=O)O)C(=O)O)c1=C2)=CC1=NC(=C3)C(C)=C1C(C)OC(C)C` (centres unmarked) [(7) C3(iso)-Ga-DP-diAsp, 2,4-bis(1-isopropoxyethyl)-Ga-deuteroporphynyl diaspartic acid], for which, in data set [1], the tumor/tissue cancer/ kidney is on record as 3.03, the tumor/tissue cancer/ liver was determined as 2.63, the tumor/tissue cancer/ lung worked out at 2.33 and the tumor/tissue cancer/ serum was 1.54. In addition, the Hemorrhagic necrosis effect entry in data set [2] is listed as “G2”.
As for `CCCCOC(C)C1=C(C)C2=Cc3c(C(C)OCCCC)c(C)c4[n]3[Ga][n]3c(c(C)c(CCC(=O)NC(CC(=O)O)C(=O)O)c3=CC3=NC(=C4)C(C)=C3CCC(=O)NC(CC(=O)O)C(=O)O)=CC1=N2` (centres unmarked) [(8) C4-Ga-DP-diAsp, 2,4-bis(1-butoxyethyl)-Ga-deuteroporphynyl diaspartic acid], in data set [1], the tumor/tissue cancer/ kidney is reported as 7.72, the tumor/tissue cancer/ liver came to 3.54, the tumor/tissue cancer/ lung worked out at 4.47 and the tumor/tissue cancer/ serum was 2.00. In addition, in data set [2], the “photograph of a cancer mass (Fig. 2)” value is “hemorrhagic necrosis”, the “photograph of a cancer mass (Fig. 1)” value is on record as “hemorrhagic necrosis” and the Hemorrhagic necrosis effect result is given as “G4”.
As for `CCCCCOC(C)C1=C(C)C2=Cc3c(C(C)OCCCCC)c(C)c4[n]3[Ga][n]3c(c(C)c(CCC(=O)NC(CC(=O)O)C(=O)O)c3=CC3=NC(=C4)C(C)=C3CCC(=O)NC(CC(=O)O)C(=O)O)=CC1=N2` (centres unmarked) [(9) C5-Ga-DP-diAsp, 2,4-bis(1-pentyloxyethyl)-Ga-deuteroporphynyl diaspartic acid], in data set [1], the tumor/tissue cancer/ kidney was 6.58, the tumor/tissue cancer/ liver turned out to be 4.07, the tumor/tissue cancer/ lung was determined as 3.89 and the tumor/tissue cancer/ serum was 0.89. Besides, in data set [2], the “photograph of a cancer mass (Fig. 1)” value is recorded as “hemorrhagic necrosis” and the Hemorrhagic necrosis effect entry is reported as “G4”.
As for `CCCCCCCOC(C)C1=C(C)C2=Cc3c(C(C)OCCCCCCC)c(C)c4[n]3[Ga][n]3c(c(C)c(CCC(=O)NC(CC(=O)O)C(=O)O)c3=CC3=NC(=C4)C(C)=C3CCC(=O)NC(CC(=O)O)C(=O)O)=CC1=N2` (centres unmarked) [(11) C7-Ga-DP-diAsp, 2,4-bis(1-heptyloxyethyl)-Ga-deuteroporphynyl diaspartic acid], in data set [1], the tumor/tissue cancer/ kidney worked out at 4.88, the tumor/tissue cancer/ liver is 2.96, the tumor/tissue cancer/ lung came to 2.92 and the tumor/tissue cancer/ serum stood at 0.89. Moreover, in data set [2], the “photograph of a cancer mass (Fig. 1)” value is reported as “hemorrhagic necrosis” and the Hemorrhagic necrosis effect entry is reported as “G4”.
For the molecule `CC1=C(CCC(=O)NC(CC(=O)O)C(=O)O)C2=NC1=Cc1c(C)c(C(C)OCCc3ccccc3)c3[n]1[Ga][n]1c(c(C)c(CCC(=O)NC(CC(=O)O)C(=O)O)c1=C2)=CC1=NC(=C3)C(C)=C1C(C)OCCc1ccccc1` (centres unmarked) [(14) C8(Phenethyl)-Ga-DP-diAsp, 2,4-bis(1-phenethyloxyethyl)-Ga-deuteroporphynyl diaspartic acid], in data set [1], the tumor/tissue cancer/ kidney is listed as 3.79, the tumor/tissue cancer/ liver is listed as 3.79, the tumor/tissue cancer/ lung is 2.89 and the tumor/tissue cancer/ serum came out at 0.72. Besides, the Hemorrhagic necrosis effect entry in data set [2] is recorded as “G1”.
Take `CCCCCCCCCOC(C)C1=C(C)c2cc3[nH]c(cc4nc(cc5[nH]c(cc1n2)c(C)c5C(C)OCCCCCCCCC)C(C)=C4CCC(=O)NC(CC(=O)O)C(=O)O)c(CCC(=O)NC(CC(=O)O)C(=O)O)c3C.[Ga]` (centres unmarked) [(15) C9-Ga-DP-diAsp, 2,4-bis(1-nonyloxyethyl)-Ga-deuteroporphynyl diaspartic acid]: in data set [1], the tumor/tissue cancer/ kidney is given as 3.54, the tumor/tissue cancer/ liver is 2.07, the tumor/tissue cancer/ lung amounted to 3.40 and the tumor/tissue cancer/ serum is recorded as 1.12. Also, in data set [2], the “photograph of a cancer mass (Fig. 1)” value is on record as “hemorrhagic necrosis” and the Hemorrhagic necrosis effect result is on record as “G2”.
On to `CC(C)=CCC/C(C)=C/COC(C)C1=C(C)C2=Cc3c(C(C)OC/C=C(\C)CCC=C(C)C)c(C)c4[n]3[Ga][n]3c(c(C)c(CCC(=O)NC(CC(=O)O)C(=O)O)c3=CC3=NC(=C4)C(C)=C3CCC(=O)NC(CC(=O)O)C(=O)O)=CC1=N2` (centres unmarked) [(17) C10(Gera)-Ga-DP-diAsp, 2,4-bis(1-geranyloxyethyl)-Ga-deuteroporphynyl diaspartic acid], for which, in data set [1], the tumor/tissue cancer/ kidney is reported as 3.82, the tumor/tissue cancer/ liver was determined as 3.33, the tumor/tissue cancer/ lung came to 4.88 and the tumor/tissue cancer/ serum amounted to 2.19. For the same molecule, the Hemorrhagic necrosis effect entry in data set [2] is given as “G2”.
In the same order, the values of `CC(C)=CCCC(C)CCOC(C)C1=C(C)C2=Cc3c(C(C)OCCC(C)CCC=C(C)C)c(C)c4[n]3[Ga][n]3c(c(C)c(CCC(=O)NC(CC(=O)O)C(=O)O)c3=CC3=NC(=C4)C(C)=C3CCC(=O)NC(CC(=O)O)C(=O)O)=CC1=N2` (centres unmarked) [(18) C10(Citro)-Ga-DP-diAsp, 2,4-bis(1-citronellyloxyethyl)-Ga-deuteroporphynyl diaspartic acid] are 15.66, 11.37, 12.39, 2.82 and “G2”.
Consider `CCCCCCCCCCCCOC(C)C1=C(C)C2=Cc3c(C(C)OCCCCCCCCCCCC)c(C)c4[n]3[Cu][n]3c(c(C)c(CCC(=O)NC(CC(=O)O)C(=O)O)c3=CC3=NC(=C4)C(C)=C3CCC(=O)NC(CC(=O)O)C(=O)O)=CC1=N2` (centres unmarked) [(70) C12-Cu-DP-diAsp, 2,4-bis(1-dodecyloxyethyl)-Cu-deuteroporphynyl diaspartic acid], for which the Hemorrhagic necrosis effect result in data set [2] is recorded as “G1”.
Turning to `CCCCCCCCCCCCOC(C)C1=C(C)C2=Cc3c(C(C)OCCCCCCCCCCCC)c(C)c4[n]3[Zn][n]3c(c(C)c(CCC(=O)NC(CC(=O)O)C(=O)O)c3=CC3=NC(=C4)C(C)=C3CCC(=O)NC(CC(=O)O)C(=O)O)=CC1=N2` (centres unmarked) [(73) C12-Zn-DP-diAsp, 2,4-bis(1-dodecyloxyethyl)-Zn-deuteroporphynyl diaspartic acid], the Hemorrhagic necrosis effect entry in data set [2] is recorded as “G2”.
